According to ChEMBL document CHEMBL1909046, “DrugMatrix in vitro pharmacology data”:
*1 amine or outer side, *2 acyl side, *3 side chain or, on linkers, in order; H or OH if unused. Where a SMILES comes first, the peptide text is derived from it. Bridges are numbered along the chain shown (N, C = ends). Roman numbers before positions name the chains, in order. [ ]: non-standard residue; d: D form. Actinocin(1to9) = Cc1c2oc3c(C)ccc(C(=O)[*:2])c3nc-2c(C(=O)[*:1])c(N)c1=O; NMeV = CN[C@H](C(=O)O)C(C)C; Sar = CNCC(=O)O

Experiments:
[1] = DRUGMATRIX: Calcium Channel Type L, Dihydropyridine radioligand binding (ligand: [3H] Nitrendipine); type: cell membranes, Rattus norvegicus, Wistar, Cerebral cortex, Membrane; conditions: Not Active = under 50% inhibition at 10 µM
[2] = biological target: T1, Cysteinyl leukotriene receptor 1 (Homo sapiens, UniProt Q9Y271); type: cell membranes, CHO-K1, Membrane; conditions: cho-k1; further: in other assays of this panel Not Active means under 50% inhibition at 10 µM
T1 sequence (Q9Y271 whole entry): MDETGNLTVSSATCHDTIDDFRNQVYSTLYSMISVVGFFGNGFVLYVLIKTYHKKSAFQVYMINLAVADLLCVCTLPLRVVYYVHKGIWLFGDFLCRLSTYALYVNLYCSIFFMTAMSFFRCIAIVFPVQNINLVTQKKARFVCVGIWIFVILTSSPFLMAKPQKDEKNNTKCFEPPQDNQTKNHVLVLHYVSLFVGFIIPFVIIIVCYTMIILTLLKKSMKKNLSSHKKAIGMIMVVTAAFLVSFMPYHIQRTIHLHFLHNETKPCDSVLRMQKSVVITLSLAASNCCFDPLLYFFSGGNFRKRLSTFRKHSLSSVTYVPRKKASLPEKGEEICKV

[3] = DRUGMATRIX: Calcium Channel Type L, Phenylalkylamine radioligand binding (ligand: [3H] (-)-Desmethoxyverapamil (D-888)); type: cell membranes, Rattus norvegicus, Wistar, Brain, Membrane; conditions: Not Active = under 50% inhibition at 10 µM
B2 bradykinin receptor = biological target: T2, B2 bradykinin receptor (Homo sapiens, UniProt P30411); type: cell membranes, Membrane; conditions: chem-1; further: in other assays of this panel Not Active means under 50% inhibition at 10 µM
T2 sequence (P30411 whole entry): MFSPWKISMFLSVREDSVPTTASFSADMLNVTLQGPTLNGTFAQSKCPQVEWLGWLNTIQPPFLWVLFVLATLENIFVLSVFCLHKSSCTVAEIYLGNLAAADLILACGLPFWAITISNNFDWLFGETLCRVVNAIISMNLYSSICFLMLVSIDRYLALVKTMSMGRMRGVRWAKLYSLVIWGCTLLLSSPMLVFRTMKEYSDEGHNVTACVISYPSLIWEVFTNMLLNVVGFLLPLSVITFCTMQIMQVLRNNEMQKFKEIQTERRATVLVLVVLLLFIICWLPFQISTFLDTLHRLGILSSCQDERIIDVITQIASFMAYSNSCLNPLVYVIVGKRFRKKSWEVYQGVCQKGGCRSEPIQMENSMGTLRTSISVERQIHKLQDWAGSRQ

[4] = biological target: T3, Alpha-1D adrenergic receptor (Homo sapiens, UniProt P25100); type: cell membranes, HEK293, Membrane; further: in other assays of this panel Not Active means under 50% inhibition at 10 µM
T3 sequence (P25100 whole entry): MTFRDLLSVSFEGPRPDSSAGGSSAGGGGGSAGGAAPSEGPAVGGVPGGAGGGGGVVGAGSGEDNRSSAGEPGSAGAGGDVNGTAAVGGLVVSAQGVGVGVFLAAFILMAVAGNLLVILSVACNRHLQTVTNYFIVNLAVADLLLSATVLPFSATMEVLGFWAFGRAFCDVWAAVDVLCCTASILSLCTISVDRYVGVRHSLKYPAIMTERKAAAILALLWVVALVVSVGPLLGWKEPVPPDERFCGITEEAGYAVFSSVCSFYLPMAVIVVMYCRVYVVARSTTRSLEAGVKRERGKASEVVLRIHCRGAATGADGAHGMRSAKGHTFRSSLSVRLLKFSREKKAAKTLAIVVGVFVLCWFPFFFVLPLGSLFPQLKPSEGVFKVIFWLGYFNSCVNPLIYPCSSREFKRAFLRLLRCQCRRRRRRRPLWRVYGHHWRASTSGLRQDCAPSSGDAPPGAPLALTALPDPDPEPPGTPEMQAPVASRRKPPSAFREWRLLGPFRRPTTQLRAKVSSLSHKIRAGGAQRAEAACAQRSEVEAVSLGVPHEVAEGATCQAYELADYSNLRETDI

[5] = biological target: T4, Amine oxidase [flavin-containing] A (Homo sapiens, UniProt P21397); test: DRUGMATRIX: Monoamine Oxidase MAO-A enzyme inhibition (substrate: Kynuramine); design: species or system BTI-TN-5B1-4; conditions: bti-tn-5b1-4; Not Active = under 50% inhibition at 10 µM
T4 sequence (P21397 whole entry): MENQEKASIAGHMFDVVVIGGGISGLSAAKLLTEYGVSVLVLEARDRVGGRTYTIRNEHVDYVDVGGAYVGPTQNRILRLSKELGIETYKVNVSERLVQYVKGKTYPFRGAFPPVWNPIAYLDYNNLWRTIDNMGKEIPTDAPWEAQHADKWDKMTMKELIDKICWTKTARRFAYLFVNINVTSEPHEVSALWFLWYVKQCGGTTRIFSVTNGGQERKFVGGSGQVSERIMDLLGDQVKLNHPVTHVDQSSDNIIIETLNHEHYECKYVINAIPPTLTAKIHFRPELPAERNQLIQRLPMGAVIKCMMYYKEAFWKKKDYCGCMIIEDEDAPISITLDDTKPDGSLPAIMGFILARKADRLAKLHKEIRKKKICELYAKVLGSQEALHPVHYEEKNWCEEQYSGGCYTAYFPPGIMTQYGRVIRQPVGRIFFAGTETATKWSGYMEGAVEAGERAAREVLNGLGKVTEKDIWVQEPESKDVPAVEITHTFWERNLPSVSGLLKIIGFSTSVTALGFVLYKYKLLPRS

Substance-P receptor = Substance-P receptor (Homo sapiens, UniProt P25103); type: cell membranes, CHO, Membrane; conditions: cho; further: in other assays of this panel Not Active means under 50% inhibition at 10 µM
Substance-P receptor, sequence (P25103 whole entry): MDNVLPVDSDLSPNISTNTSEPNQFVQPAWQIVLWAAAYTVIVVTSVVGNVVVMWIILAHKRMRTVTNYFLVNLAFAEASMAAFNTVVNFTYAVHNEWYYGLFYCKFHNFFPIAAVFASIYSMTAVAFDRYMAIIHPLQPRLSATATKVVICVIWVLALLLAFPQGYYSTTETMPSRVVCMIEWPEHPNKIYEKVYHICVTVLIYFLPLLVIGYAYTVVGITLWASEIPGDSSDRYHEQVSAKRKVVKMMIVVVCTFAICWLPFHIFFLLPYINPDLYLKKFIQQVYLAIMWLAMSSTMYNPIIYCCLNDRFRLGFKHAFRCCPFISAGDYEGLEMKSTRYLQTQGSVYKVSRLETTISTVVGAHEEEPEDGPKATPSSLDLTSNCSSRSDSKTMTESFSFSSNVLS

SMILES | IC50 [1] | Ki [1] | IC50 [2] | IC50 [3] | Ki [3] | IC50 (B2 bradykinin receptor) | IC50 ([4]; hek293) | IC50 [5] | IC50 (Substance-P receptor) | IC50 ([1]; read-out: IC50) | Ki ([1]; read-out: Ki) | IC50 ([4]; read-out: IC50) | Ki ([4]; read-out: Ki)
CN(C)C(=O)Oc1cc(OC(=O)N(C)C)cc(C(O)CNC(C)(C)C)c1 (stereo unspecified) [BAMBUTEROL] | Not Active | Not Active | Not Active | Not Active | Not Active | Not Active | Not Active | Not Active | Not Active |  |  |  | 
c1ccc2c(c1)c1cccc3ccc4cccc2c4c31 [BENZO[E]PYRENE] | Not Active | Not Active | Not Active | Not Active | Not Active | Not Active | Not Active | Not Active | Not Active |  |  |  | 
CNCCc1ccccn1 [BETAHISTINE] | Not Active | Not Active | Not Active | Not Active | Not Active | Not Active | Not Active | Not Active | Not Active |  |  |  | 
CC(C)C(Br)C(=O)NC(N)=O (stereo unspecified) [BROMISOVALUM] | Not Active | Not Active | Not Active | Not Active | Not Active | Not Active | Not Active | Not Active | Not Active |  |  |  | 
CCCC1O[C@@H]2C[C@H]3[C@@H]4CCC5=CC(=O)C=C[C@]5(C)[C@H]4[C@@H](O)C[C@]3(C)[C@]2(C(=O)CO)O1 (stereo partly specified) [BUDESONIDE] | Not Active | Not Active | Not Active | Not Active | Not Active | Not Active | Not Active | Not Active | Not Active |  |  |  | 
CC(NC(C)(C)C)C(=O)c1cccc(Cl)c1 (stereo unspecified) [BUPROPION] | Not Active | Not Active | Not Active | Not Active | Not Active | Not Active | Not Active | Not Active | Not Active |  |  |  | 
CN(Cc1ccc(C(C)(C)C)cc1)Cc1cccc2ccccc12 [BUTENAFINE] | Not Active | Not Active | Not Active | Not Active | Not Active | Not Active | Not Active | Not Active | Not Active |  |  |  | 
C[C@H](CS)C(=O)N1CCC[C@H]1C(=O)O [CAPTOPRIL] | Not Active | Not Active | Not Active | Not Active | Not Active | Not Active | Not Active | Not Active | Not Active |  |  |  | 
Cc1ccc(-c2cc(C(F)(F)F)nn2-c2ccc(S(N)(=O)=O)cc2)cc1 [CELECOXIB] |  |  | Not Active | Not Active | Not Active | Not Active | Not Active | Not Active | Not Active | 24.6 µM | 15.8 µM |  | 
O=C(O)CCCc1ccc(N(CCCl)CCCl)cc1 [CHLORAMBUCIL] | Not Active | Not Active | Not Active | Not Active | Not Active | Not Active | Not Active | Not Active | Not Active |  |  |  | 
C[C@H](CCC(=O)O)[C@H]1CC[C@H]2[C@@H]3[C@H](O)C[C@@H]4C[C@H](O)CC[C@]4(C)[C@H]3C[C@H](O)[C@]12C [CHOLIC ACID] | Not Active | Not Active | Not Active | Not Active | Not Active | Not Active | Not Active | Not Active | Not Active |  |  |  | 
Cc1cc(C2CCCCC2)n(O)c(=O)c1 [CICLOPIROX] | Not Active | Not Active | Not Active | Not Active | Not Active | Not Active | Not Active | Not Active | Not Active |  |  |  | 
CC1=C2C(=CO[C@H](C)[C@H]2C)C(O)=C(C(=O)O)C1=O [CITRININ] | Not Active | Not Active | Not Active | Not Active | Not Active | Not Active | Not Active | Not Active | Not Active |  |  |  | 
CC(C)(C)NCC(O)c1cc(Cl)c(N)c(Cl)c1 (stereo unspecified) [CLENBUTEROL] | Not Active | Not Active | Not Active | Not Active | Not Active | Not Active | Not Active | Not Active | Not Active |  |  |  | 
CC(C)(Oc1ccc(Cl)cc1)C(=O)O [CLOFIBRIC ACID] | Not Active | Not Active | Not Active | Not Active | Not Active | Not Active | Not Active | Not Active | Not Active |  |  |  | 
Clc1cccc(Cl)c1NC1=NCCN1 [CLONIDINE] | Not Active | Not Active | Not Active | Not Active | Not Active | Not Active |  | Not Active | Not Active |  |  | 1.21 µM | 0.595 µM
Cc1cc(C(C#N)c2ccc(Cl)cc2)c(Cl)cc1NC(=O)c1cc(I)cc(I)c1O (stereo unspecified) [CLOSANTEL] | Not Active | Not Active | Not Active | Not Active | Not Active | Not Active | Not Active | Not Active | Not Active |  |  |  | 
Cc1onc(-c2ccccc2Cl)c1C(=O)N[C@@H]1C(=O)N2[C@@H]1SC(C)(C)[C@@H]2C(=O)O [CLOXACILLIN] | Not Active | Not Active | Not Active | Not Active | Not Active | Not Active | Not Active | Not Active | Not Active |  |  |  | 
CC1CC(OC(=O)C(O)c2ccccc2)CC(C)(C)C1 (stereo unspecified) [CYCLANDELATE] | Not Active | Not Active | Not Active | Not Active | Not Active | Not Active | Not Active | Not Active | Not Active |  |  |  | 
Cc1c2oc3c(C)ccc(C(=O)N[C@@H]4C(=O)N[C@H](C(C)C)C(=O)N5CCC[C@H]5C(=O)N(C)CC(=O)N(C)[C@@H](C(C)C)C(=O)O[C@@H]4C)c3nc-2c(C(=O)N[C@@H]2C(=O)N[C@H](C(C)C)C(=O)N3CCC[C@H]3C(=O)N(C)CC(=O)N(C)[C@@H](C(C)C)C(=O)O[C@@H]2C)c(N)c1=O [DACTINOMYCIN] (I: T[dV]P[Sar][NMeV] / II: T[dV]P[Sar][NMeV]; ester I:1-I:C, II:1-II:C; linker I:N-II:N via Actinocin(1to9)) | Not Active | Not Active | Not Active | Not Active | Not Active | Not Active | Not Active | Not Active | Not Active |  |  |  | 
